This is an account of results in PMC4589779 (Scientific Reports, 2015).

Each structure is given as a SMILES string. Read-outs that look alike come from different tables or passages of the source.

In data set [1] the test system is HepG2 cells. Put plainly: Cell proliferation assay (WST-1) in HepG2 cells. Conditions: for no toxic effect on cell viability up to (concentration): 6 hours incubation, alone or in combination with CDCA (50 μM); for effect on cell viability: 6 hours, 25 μM NSAID and CDCA (50 μM); for concentrations that are considerably toxic: summing up of the WST-1 toxicity data (HepG2 and HEK293T). On the procedure:
(§1) WST-1 assay (Roche Diagnostics International AG, Rotkreuz, Switzerland) was performed according to manufacturer’s protocol. In brief, HepG2 cells were seeded in DMEM high glucose, supplemented with sodium pyruvate (1 mM), penicillin (100 U/mL), streptomycin (100 μg/mL) and 10% FCS in 96-well plates (3 · 10^4 cells/well). HEK293T cells were seeded in DMEM high glucose, supplemented with sodium pyruvate (1 mM), penicillin (100 U/mL), streptomycin (100 μg/mL) and 10% FCS in 96-well plates (2,5 · 10^4 cells/well). After 24 h, medium was changed to DMEM high glucose, supplemented with penicillin (100 U/mL), streptomycin (100 μg/mL) and 1% charcoal stripped FCS and cells were incubated with varying concentrations of test compounds, Revlotron (100 μM) as positive control and DMEM/0,1% DMSO as negative control. […] […] After 45 min incubation, absorption (450 nm/reference: 620 nm) was determined with a Tecan Infinite M200 luminometer (Tecan Deutschland GmbH). Each experiment was repeated at least four times in triplicates.
On the technique in general: Tetrazolium assays rely on reduction of a dye to a coloured formazan, in cell work by metabolically active cells.

The test system of data set [2] is HEK293T cells. Put plainly: Cell proliferation assay (WST-1) in HEK293T cells. The class given is cell-based. Conditions: for anti-proliferative effect in combination with CDCA: 24 h, NSAIDs 5, 25, 50 μM combined with CDCA (50 μM); for toxicity compared with HepG2 cells: 48 h. As to the method: as §1
Data set [3] deals with bile salt export protein (BSEP) mRNA. As to the method: (§2) Quantification of the expression of FXR target genes in non-transfected cells offers the least artificial way to characterize the activity of a FXR ligand in vitro. […] As investigated genes we selected the direct FXR target genes bile salt export protein (BSEP) and small hetero-dimer partner (SHP) which allows a specific conclusion whether a FXR-dependent effect is present. […] We then quantified the mRNA of FXR target genes BSEP and SHP by qRT-PCR.
(§3) HepG2 cells were seeded in DMEM high glucose, supplemented with 10% FCS, SP (1 mM), penicillin (100 U/mL) and streptomycin (100 μg/mL) at 37 °C and 5% CO2 in 6-well plates (2 · 10^6 per well). 24 h after seeding, medium was changed to MEM, supplemented with 1% charcoal-stripped FCS, penicillin (100 U/mL), streptomycin (100 μg/mL) and L-glutamine (2 mM). After additional 24 h, medium was changed again to MEM, now additionally containing 0.1% DMSO and the respective test compounds or 0.1% DMSO alone as untreated control. Cells were incubated with the test compounds for 6 h, harvested, washed with cold phosphate buffered saline (PBS) and then directly used for RNA extraction.
Total RNA was extracted from HepG2 cells by the Total RNA Mini Kit (R6834-02, Omega Bio-Tek, Inc., Norcross, GA, USA). RNA was reverse-transcribed into cDNA using the High-Capacity cDNA Reverse Transcription Kit (4368814, Thermo Fischer Scientific, Inc., Waltham, MA, USA) with 2 μg RNA according to the manufacturer’s protocol.
FXR target gene expression was evaluated by quantitative PCR analysis with a StepOnePlusTM System (Life Technologies) using PowerSYBRGreen (Life Technologies; 12.5 μL per well) and the following primers[17] (300 nM each): SHP: 5′-[…] (forward) and 5′-[…] (reverse); BSEP: 5′-[…] (forward) and 5′-[…] (reverse). Results were normalized to GAPDH Ct values. Sequences of the GAPDH primers were as follows: 5′-[…] (forward) and 5′- […] (reverse). Each sample was set up in duplicates and repeated in at least four independent experiments. The expression was quantified by the comparative ΔΔCt method.

Data set [4] concerns CYP7A1 mRNA. Details: method as in PMID 25631039. The settings on record: HepG2 cells, with 50 μM CDCA; cited from earlier work.
For data set [5], the target named is T1, FXR-LBD protein (residues 244–472) (Homo sapiens, UniProt Q96RI1).
T1 sequence (Q96RI1 244-472 isoform Q96RI1-2): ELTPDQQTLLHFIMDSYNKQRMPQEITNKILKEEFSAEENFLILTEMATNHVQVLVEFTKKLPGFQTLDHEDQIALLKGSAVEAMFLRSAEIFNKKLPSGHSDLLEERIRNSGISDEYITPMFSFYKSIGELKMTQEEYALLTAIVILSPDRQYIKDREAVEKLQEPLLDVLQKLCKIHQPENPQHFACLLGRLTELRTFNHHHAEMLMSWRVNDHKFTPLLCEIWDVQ
The source says: The thermal shift method is widely used to assess ligand binding. A thermal shift assay usually measures the melting temperature of a protein with or without a ligand by monitoring a fluorescent dye. In an aqueous solution of folded protein the dye signal is low due to quenching of the dye fluorescence in water, but with increasing temperature the protein unfolds and exposes its hydrophobic core regions. The fluorescent dye is then bound to the hydrophobic surfaces and fluorescence increases.
Thermal Shift assay was performed in clear 96-well plates (Invitrogen) using SYPRO Orange (Invitrogen Darmstadt, Germany) as dye. […] Temperature-dependent fluorescence increase reporting protein denaturation was measured in duplicates in an ICycler (Bio-Rad) from 20 to 90 °C in steps of 0.2 °C per minute at […] and 570 nm emission wavelength. Each experiment was independently repeated four times. The first derivative of the melting curves was calculated using the Graph Pad Prism 5 software.

In data set [6] the target is T2, fusion receptor of the FXR ligand binding domain and a Gal4 DNA binding domain (Homo sapiens, UniProt Q96RI1).
T2 sequence (Q96RI1 262-486 limits assumed): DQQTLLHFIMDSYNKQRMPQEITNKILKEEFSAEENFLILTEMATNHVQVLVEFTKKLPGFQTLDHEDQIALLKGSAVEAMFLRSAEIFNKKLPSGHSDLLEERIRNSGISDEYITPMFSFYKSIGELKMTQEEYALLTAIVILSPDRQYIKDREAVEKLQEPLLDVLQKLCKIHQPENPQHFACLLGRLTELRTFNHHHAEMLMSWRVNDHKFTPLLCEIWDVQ
As to the method:
Luminescence was measured with an Infinite M200 luminometer (Tecan Deutschland GmbH). […] Fold activation was obtained by dividing the mean RLU of a test compound at a respective concentration by the mean RLU of untreated control.

Data set [7] has as its target T3, FXR (Homo sapiens, UniProt Q96RI1).
T3 construct: is based on the complete FXR receptor (CMV promoter); expressed in transfected cells; host or cells: HeLa
T3 sequence (Q96RI1 1-486): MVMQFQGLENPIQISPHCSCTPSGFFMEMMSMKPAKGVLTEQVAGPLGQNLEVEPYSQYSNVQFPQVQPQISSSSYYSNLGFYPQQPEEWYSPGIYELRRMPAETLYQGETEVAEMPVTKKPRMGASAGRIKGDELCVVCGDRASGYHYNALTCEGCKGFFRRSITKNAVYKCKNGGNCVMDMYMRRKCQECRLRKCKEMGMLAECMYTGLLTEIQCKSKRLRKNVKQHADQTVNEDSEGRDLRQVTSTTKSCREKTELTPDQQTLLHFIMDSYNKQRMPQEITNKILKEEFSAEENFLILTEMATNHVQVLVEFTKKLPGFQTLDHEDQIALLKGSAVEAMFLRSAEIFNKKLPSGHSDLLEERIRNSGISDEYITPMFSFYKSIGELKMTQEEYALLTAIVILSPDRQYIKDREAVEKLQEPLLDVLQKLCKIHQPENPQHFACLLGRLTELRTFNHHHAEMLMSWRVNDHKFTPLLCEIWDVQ
T3 sequence (P19793 1-462 partner): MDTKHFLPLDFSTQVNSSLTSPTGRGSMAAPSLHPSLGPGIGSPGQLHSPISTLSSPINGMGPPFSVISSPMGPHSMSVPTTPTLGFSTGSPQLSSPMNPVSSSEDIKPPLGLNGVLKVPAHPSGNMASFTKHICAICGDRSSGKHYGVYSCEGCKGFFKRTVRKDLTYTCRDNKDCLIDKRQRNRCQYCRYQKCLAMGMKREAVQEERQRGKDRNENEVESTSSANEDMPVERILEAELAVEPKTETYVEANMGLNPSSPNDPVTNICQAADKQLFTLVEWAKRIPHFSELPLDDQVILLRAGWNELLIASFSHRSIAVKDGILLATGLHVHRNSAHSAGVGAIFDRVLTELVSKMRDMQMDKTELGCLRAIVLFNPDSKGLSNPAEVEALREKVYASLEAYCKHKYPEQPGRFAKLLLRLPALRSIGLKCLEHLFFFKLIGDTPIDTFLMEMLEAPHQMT
Put plainly: Full-length FXR reporter gene assay in HeLa cells (BSEP promotor, RXRα). The class given is cell-based. On the procedure:
Luminescence was measured with a Tecan Infinite M200 luminometer (Tecan Deutschland GmbH, Crailsheim, Germany). […] Fold activation was obtained by dividing the mean RLU of the tested compound at a respective concentration by the mean RLU of untreated control.
(In a reporter assay the amount or activity of a reporter protein is the signal.)

A short description of data set [8]: Cell proliferation assay (WST-1) in HepG2 cells. Conditions: human, HepG2 cells. As to the method:
as §1

The test system of data set [9] is small hetero-dimer partner (SHP) mRNA. Put plainly: FXR target gene quantification by qRT-PCR in HepG2 cells: SHP. Format: cell-based. On the procedure: as §2
as §3, with “extraction. […]” for “extraction.”
FXR target gene expression was evaluated by quantitative PCR analysis with a StepOnePlusTM System (Life Technologies) using PowerSYBRGreen (Life Technologies; 12.5 μL per well) and the following primers[17] […] The expression was quantified by the comparative ΔΔCt method.

Where [10] appears, read: 10 or 30 μM in competition with GW4064 (3 μM), OCA (3 μM) and CDCA (20 μM).

On to `COc1ccc2c(c1)c(CC(=O)O)c(C)n2C(=O)c1ccc(Cl)cc1` [indometacin], for which, in data set [1] (HepG2 cells), the “no toxic effect on cell viability up to (concentration)” value is recorded as “up to 50 μM” and the “effect on cell viability” value is given as “did not affect cell viability”. For the same compound, the “concentrations with anti-proliferative activity / slight toxicity” value in data set [1] (human, 48 h) was no less than 10 µM. Besides, in data set [1], the “concentrations that are considerably toxic” value was no less than 30 µM. In addition, in data set [2], the “anti-proliferative effect in combination with CDCA” value (“anti-proliferative effect” for short) is reported as “considerable anti-proliferative effects” and the “toxicity compared with HepG2 cells” value is listed as “even higher toxicity”. In data set [3] (HepG2 cells, 25 μM and 50 μM in competition with CDCA (50 μM), 6 h), the “antagonistic effect on BSEP expression” value was “did not observe any antagonistic effect”. In data set [3] (HepG2 cells, 50 μM alone, 6 h incubation), the “effect on BSEP expression” value is given as “did not affect the expression”. Moreover, in data set [4], the “induction of CYP7A1 expression (increase in mRNA levels)” value was 9 fold.

On to `CC(C)c1onc(-c2c(Cl)cccc2Cl)c1COc1ccc(/C=C/c2cccc(C(=O)O)c2)c(Cl)c1` [GW4064], for which the “concentrations that robustly stabilize the FXR-LBD” value in data set [5] (5 μM FXR-LBD, ratio to protein ≥20:1) is no less than 100 µM.

Regarding `CC(C)Cc1ccc(C(C)C(=O)O)cc1` (centres unmarked) [ibuprofen], in [1] (HepG2 cells), the “no toxic effect on cell viability up to (concentration)” value is reported as “up to 100 μM” and the “effect on cell viability” value is recorded as “did not affect cell viability”. The “no toxicity up to (concentration)” value in data set [1] (HepG2 cells, 48 h) was “up to 50 μM”. Further, the “anti-proliferative effect” value in data set [2] is given as “considerable anti-proliferative effects”. Further, the “induction of CYP7A1 expression (increase in mRNA levels)” value in [4] is reported as 1.7 fold.

As for `O=C(O)Cc1ccccc1Nc1c(Cl)cccc1Cl` [diclofenac, diclofenac sodium], in data set [6], the “activity of the control gene (renilla luciferase)” value is recorded as “toxicity driven decrease”. For the same compound, the agonistic activity result in data set [6] (10 or 30 μM alone) is “None”. Also, the competitive antagonistic activity result in data set [6] (setting [10]) is on record as “None”. Further, the agonistic activity entry in [7] (10 or 30 μM alone) is listed as “None”. Also, in [7] (setting [10]), the competitive antagonistic activity entry is given as “None”. For the same compound, in data set [8], the viability at 6 h, 30 μM turned out to be 85 ± 2% and the viability at 6 h, 50 μM turned out to be 75 ± 2%. Moreover, in data set [1] (HepG2 cells), the “effect on cell viability” value was “did not affect cell viability”. In data set [1] (HepG2 cells, 48 h), the “concentrations with anti-proliferative activity / slight toxicity” value was no less than 10 µM. For the same compound, the “concentrations that are considerably toxic” value in [1] was no less than 30 µM. Also, in data set [2], the “anti-proliferative effect” value was “considerable anti-proliferative effects” and the “toxicity compared with HepG2 cells” value is “even higher toxicity”. Besides, the “effect on BSEP expression” value in [3] was “did not affect the expression”. For the same compound, the “antagonistic effect on SHP expression” value in data set [9] (25 μM and 50 μM in competition with CDCA (50 μM), 6 h) is “did not observe any antagonistic effect”. For the same compound, in [9] (50 μM alone, 6 h incubation), the “effect on SHP expression” value is on record as “did not affect the expression”. In [5] (500 μM alone, ratio to protein 100:1), the “stabilization of the FXR-LBD” value is listed as “did not stabilize the FXR-LBD”. For the same compound, in [5] (500 μM in competition with GW4064 (100 μM, ratio 20:1)), the “antagonism of the stabilization of the FXR-LBD by GW4064” value is listed as “did not antagonize the stabilization”.

What is called viability is a per cent measure of how many cells are alive, often set against a control. Low readings indicate a greater loss of cells, high ones better survival.
